Patent US20080119412A1, “Polypeptides for Modulating Binding of Trp Channel Proteins and Trp- Associated Proteins” (NoNO Inc., priority 2003, published 2008)
pEC50: −log10 of the molar value. Residues, ends and D or L forms follow the SMILES beside them. *: point of attachment. Biotin = O=C1N[C@H]2[C@H](CS[C@H]2CCCCC(=O)*)N1

Columns and labels:
[1] = molecular target: TRPM2 (Homo sapiens, UniProt O94759); conditions: binding to carboxy-terminal NUDT9 Nudix hydrolase domain; read-out: EC50, gating of TRPM2 channel; cited from earlier work
Chain of TRPM2 (O94759 whole entry, the tested form may be a part): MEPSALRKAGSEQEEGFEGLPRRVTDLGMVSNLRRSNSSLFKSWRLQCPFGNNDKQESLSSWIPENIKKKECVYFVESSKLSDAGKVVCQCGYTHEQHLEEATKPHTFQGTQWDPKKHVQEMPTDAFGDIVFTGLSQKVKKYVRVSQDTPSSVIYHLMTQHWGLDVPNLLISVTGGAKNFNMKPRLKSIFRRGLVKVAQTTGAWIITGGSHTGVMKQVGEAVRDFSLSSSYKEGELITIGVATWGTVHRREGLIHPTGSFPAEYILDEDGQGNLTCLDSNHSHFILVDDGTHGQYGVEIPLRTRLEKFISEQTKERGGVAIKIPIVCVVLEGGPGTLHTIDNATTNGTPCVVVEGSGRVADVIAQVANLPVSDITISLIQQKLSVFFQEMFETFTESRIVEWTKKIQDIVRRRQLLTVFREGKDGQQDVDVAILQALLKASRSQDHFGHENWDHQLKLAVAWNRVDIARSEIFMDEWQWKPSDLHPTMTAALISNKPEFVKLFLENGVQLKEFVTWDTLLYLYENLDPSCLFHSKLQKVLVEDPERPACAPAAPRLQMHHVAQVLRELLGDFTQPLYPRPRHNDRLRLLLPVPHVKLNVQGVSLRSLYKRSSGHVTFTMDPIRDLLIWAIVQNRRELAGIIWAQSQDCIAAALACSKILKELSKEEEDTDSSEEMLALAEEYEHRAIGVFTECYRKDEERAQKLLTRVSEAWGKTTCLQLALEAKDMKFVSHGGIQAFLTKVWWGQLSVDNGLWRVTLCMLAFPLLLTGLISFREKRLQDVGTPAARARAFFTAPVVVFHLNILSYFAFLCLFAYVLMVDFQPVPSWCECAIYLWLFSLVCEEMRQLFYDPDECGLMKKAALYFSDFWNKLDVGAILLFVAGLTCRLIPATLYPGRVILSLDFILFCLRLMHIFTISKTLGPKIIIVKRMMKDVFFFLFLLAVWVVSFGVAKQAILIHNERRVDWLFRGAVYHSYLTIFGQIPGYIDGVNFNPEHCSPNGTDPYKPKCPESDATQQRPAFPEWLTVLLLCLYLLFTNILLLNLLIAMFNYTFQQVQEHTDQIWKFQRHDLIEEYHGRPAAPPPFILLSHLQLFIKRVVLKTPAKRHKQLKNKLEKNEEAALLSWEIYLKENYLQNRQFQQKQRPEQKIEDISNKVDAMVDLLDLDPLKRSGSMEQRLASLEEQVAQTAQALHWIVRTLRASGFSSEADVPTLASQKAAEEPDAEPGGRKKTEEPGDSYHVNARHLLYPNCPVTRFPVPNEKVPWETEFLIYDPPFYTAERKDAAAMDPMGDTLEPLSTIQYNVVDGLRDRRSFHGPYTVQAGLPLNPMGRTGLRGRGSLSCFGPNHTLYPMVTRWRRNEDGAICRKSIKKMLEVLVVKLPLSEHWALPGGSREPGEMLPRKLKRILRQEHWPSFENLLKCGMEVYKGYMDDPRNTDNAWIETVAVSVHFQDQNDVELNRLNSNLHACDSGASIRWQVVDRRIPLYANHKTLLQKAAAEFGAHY

[2] = molecular target: T1, INADL d3 (Homo sapiens, UniProt Q8NI35); test: G assay, peptide binding to GST-PDZ fusion (Table 11); conditions: Table 11, titrations or binding assays
T1 construct: made in house; host or cells: E. coli (DH5alpha, BL21 or JM109)
T1 sequence (Q8NI35 with tags, fused parts or gaps): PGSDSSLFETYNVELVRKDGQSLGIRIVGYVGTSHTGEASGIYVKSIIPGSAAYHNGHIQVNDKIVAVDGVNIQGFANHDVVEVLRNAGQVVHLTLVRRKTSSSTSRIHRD
Experimental: (§6) The binding of labeled PL peptide (e.g., as listed in TABLE 2 and TABLE 4) to this surface is then measured. In a preferred embodiment, the assay is carried out as follows:
(§7) (1) A PDZ-domain polypeptide is bound to a surface, e.g. a protein binding surface. In a preferred embodiment, a GST/PDZ fusion protein containing one or more PDZ domains is bound to a polystyrene 96-well plate. […] In one embodiment, the GST/PDZ fusion protein is bound via an anti-GST antibody that is coated onto the 96-well plate. Adequate binding to the plate can be achieved when:
(§8) (2) Biotinylated PL peptides are allowed to react with the surface by addition of 50 μl per well of 20 μM solution of the biotinylated peptide in PBS/BSA for 10 minutes at 4° C., followed by an additional 20 minute incubation at 25° C. The plate is washed 3 times with ice cold PBS.
(§9) (3) The binding of the biotinylated peptide to the GST/PDZ fusion protein surface can be detected using a variety of methods and detectors known to one of skill in the art. In one embodiment, 100 μl per well of 0.5 μg/ml streptavidin-horseradish peroxidase (HRP) conjugate dissolved in BSA/PBS is added and allowed to react for 20 minutes at 4° C. The plate is then washed 5 times with 50 mM Tris pH 8.0 containing 0.2% Tween 20, and developed by addition of 100 μl per well of HRP-substrate solution (TMB, Dako) for 20 minutes at room temperature (RT). The reaction of the HRP and its substrate is terminated by addition of 100 μl per well of 1 M sulfuric acid, and the optical density (O.D.) of each well of the plate is read at 450 um.
(§10) (4) Specific binding of a PL peptide and a PDZ domain polypeptide is determined by comparing the signal from the well(s) in which the PL peptide and PDZ domain polypeptide are combined, with the background signal(s). […] Typically a specific or selective reaction will be at least twice background signal, more typically more than 5 times background, and most typically 10 or more times the background signal. […] Correspondingly, a statistical test (e.g. a T-test) comparing repeated measurements of the signal with -repeated measurements of the background will result in a p-value <0.05, more typically a p-value <0.01, and most typically a p-value <0.001 or less. As noted, in an embodiment of the G assay, the signal from binding of a given PL peptide to immobilized (surface bound) GST polypeptide alone is one suitable negative control (sometimes referred to as B1). Because all measurement are done in multiples (i.e. at least duplicate) the arithmetic mean (or, equivalently, average.) of several measurements is used in determining the binding, and the standard error of the mean is used in determining the probable error in the measurement of the binding. The standard error of the mean of N measurements equals the square root of the following: the sum of the squares of the difference between each measurement and the mean, divided by the product of (N) and (N−1). Thus, in one embodiment, specific binding of the PDZ protein to the platebound peptide is determined by comparing the mean signal (“mean S”) and standard error of the signal (“SE”) for a particular PL-PDZ combination with the mean B1.

[3] = molecular target: T2, ZO-1 d2 (Homo sapiens, UniProt Q07157, DEL264-264); test: G3 assay titration, GST-PDZ fusion / biotinylated peptide; assay type: binding; conditions: for ODmax (450 nm): Table 10, titration of peptides with ZO-1 d2
T2 construct: made in house; host or cells: E. coli (DH5alpha, BL21 or JM109)
T2 sequence (Q07157 with tags, fused parts or gaps DEL264-264): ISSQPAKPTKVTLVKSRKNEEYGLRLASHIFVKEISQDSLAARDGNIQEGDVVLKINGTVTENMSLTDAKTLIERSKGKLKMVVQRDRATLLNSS
Experimental: (§1) The G3 assay is identical to the G0 assay with the following exceptions. The peptides are typically present at 0.1 μM rather than 20 μM. The peptides are also pre-incubated with the HRP-streptavidin prior to adding to the assay plate. In the G0 assay, free peptide is incubated with the PDZ proteins prior to the addition of the HRP-streptavidin. Thus, for the G0 assay one can lose signal if the bound peptide dissociates from the PDZ protein prior to the addition of the HRP-streptavidin. In the G3 modified assay the HRP-streptavidin/peptide complex is added to the plate in one step, thus increasing the likelihood that all the bound peptide will be bound to HRP-streptavidin. The G3 modified assay increases the chance of observing weak interactions.
(§2) This example describes assays to identify binding between TRPM7 and PDZ domains. GST-PDZ fusions are produced that each contain an entire PDZ domain (or multiple PDZ domains), the collection encompassing approximately 90% of all PDZ domains identified in the human genome. (See Table 5 and Section V (PDZ Proteins and PL Protein Interactions Disclosure). Biotinylated peptide corresponding to 11 residues of Tat coupled to the C-terminal 9 amino acids of TRPM7 ([…]; SEQ ID NO:258) is synthesized and purified by HPLC.
(§3) • Nunc MaxiSorp 96 well Immuno-plate, Nunc • PBS pH 7.4 (phosphate buffered saline, 8 g NaCl, 0.29 g KCl, 1.44 g Na2HPO4, 0.24 g KH2PO4, add H2O to 1 liter and pH 7.4; 0.2 μm filter) • Assay Buffer: 2% BSA in PBS (20 g of bovine serum albumin per liter PBS, fraction V, ICN Biomedicals, cat#IC15142983 • Goat anti-GST polyclonal Ab, stock 5 mg/ml, stored at 4° C., Amersham Pharmacia cat#27-4577-01 • Dilute 1:1000 in PBS, final concentration 5 μg/ml. • HRP-Streptavidin, 2.5 mg/2 ml stock stored at 4° C., Zymed cat#43-4323, dilute 1:2000 into Assay buffer, final concentration of […] • Wash Buffer, PBS • Biotinylated peptides (HPLC purified, stock solution stored in −20° C. freezer) • GST-PRISM proteins (stock stored at −80° C., after 1st thaw store in −10° C. freezer) • TMB (3,3′,5,5′, teramethylbensidine), tablets, Sigma cat.#T5525 • Per plate, dissolve 1 tablet in 1 ml DMSO, add 9 ml Citrate/Phosphate buffer pH 5.4 and 2 μL H2O2 • 0.1 M H2SO4, Sigma cat.#S1526 • 12-w multichannel pipettor & tips • 50 ml reagent reservoirs, Costar#4870 • 50, 15 ml polypropylene conical tubes • Costar Transtar 96 Costar #7605 • Transtar 96 Cartridge Costar #7610 • Molecular Devices microplate reader (450 & 650 nm filters) with SoftMax Pro software *When using reagents stored at or 4° C. or −20° C., remove & keep on ice
(§4) • 1. Coat plate with 100 μl of 5 μg/ml anti-GST, overnight at 4° C. • 2. Dump contents of plate & out tap dry on paper towels • 3. Block with 200 μl Assay Buffer for 2 hrs at room temperature • 4. Prepare proteins at 5 μg/ml in Assay Buffer • 5. Wash 3× with cold PBS (4° C.), avoiding letting the plates dry out • 6. Add proteins at 50 μl per well, incubate 1 to 2 hrs at 4° C. • 7. Prepare peptides to desired concentration in Assay Buffer • 8. Wash 3× with cold PBS (4° C.), avoiding letting the plates dry out • 9. Add HRP-Streptavidin/peptide complex [prepared by incubating for 20 minutes at room temperature HRP-Streptavidin (1:2000) with the desired biotin-peptide concentration for 20 minutes at room temperature] at 50 μl per well on ice • 10. Place at room temperature for exactly 30 minutes • 11. Promptly wash 5× with PBS at room temperature • 12. Add 100 μl/well TMB substrate (write time on plate) • 13. Incubate in dark at room temperature for a maximum of 30 minutes • 14. Read plate at 25 minutes (650 nm), optional • 15. Stop reaction with 100 μl of 0.18 M H2SO4, 30 minutes after adding TMB • Take last reading at 450 nm soon after stopping reaction
(§5) The G3 assay was performed using 0.1 μM peptide representing 11 amino acids of Tat fused to the final 9 amino acids of TRPM7 ([…]; SEQ ID NO:258). […]

[4] = molecular target: T1, INADL d3; test: as above; assay type: binding; conditions: for ODmax (450 nm): Table 10, titration of peptides with INADL d3
Experimental: as §1, §2, §3, §4, §5

[5] = molecular target: T2, ZO-1 d2; test: G assay, peptide binding to GST-PDZ fusion (Table 11); conditions: Table 11, titrations or binding assays
Experimental: as §6, §7, §8, §9, §10

| Compound | pEC50 [1] | PDZ domain bound [2] | pEC50 [3] | ODmax (450 nm) [3] | ODmax (450 nm) [4] | PDZ domain bound [5] | pEC50 [4] |
| --- | --- | --- | --- | --- | --- | --- | --- |
| Nc1ncnc2c1ncn2[C@@H]1O[C@H](COP(=O)(O)OP(=O)(O)OC[C@H]2OC(O)[C@H](O)[C@@H]2O)[C@@H](O)[C@H]1O (stereo partly drawn) [ADP ribose] | 4.00 |  |  |  |  |  |  |
| CC[C@H](C)[C@H](NC(=O)[C@@H](NC(=O)[C@H](CCCNC(=N)N)NC(=O)[C@H](CC(=O)O)NC(=O)[C@H](CO)NC(=O)[C@H](CCCNC(=N)N)NC(=O)[C@H](C)NC(=O)[C@H](CCCNC(=N)N)NC(=O)[C@H](CCCNC(=N)N)NC(=O)[C@H](CCCNC(=N)N)NC(=O)[C@H](CCC(N)=O)NC(=O)[C@H](CCCNC(=N)N)NC(=O)[C@H](CCCNC(=N)N)NC(=O)[C@H](CCCCN)NC(=O)[C@H](CCCCN)NC(=O)[C@H](CCCNC(=N)N)NC(=O)CNC(=O)[C@H](Cc1ccc(O)cc1)NC(=O)CCCC[C@@H]1SC[C@@H]2NC(=O)N[C@@H]21)[C@@H](C)O)C(=O)N[C@@H](Cc1c[nH]c2ccccc12)C(=O)N[C@@H](C)C(=O)O [Peptide 1829] (Biotin-YGRKKRRQRRRARSDRTIWA-OH; C-terminus assumed) |  | INADL D3 | 8.15 | 2.90 | 1.40 | ZO-1 D2 |  |
| C[C@H](NC(=O)[C@H](Cc1c[nH]c2ccccc12)NC(=O)[C@H](Cc1ccc(O)cc1)NC(=O)[C@H](CCCCN)NC(=O)[C@H](CCCNC(=N)N)NC(=O)[C@H](CC(=O)O)NC(=O)[C@@H](NC(=O)[C@H](CCCNC(=N)N)NC(=O)[C@H](CO)NC(=O)[C@H](CCCNC(=N)N)NC(=O)[C@H](CCCNC(=N)N)NC(=O)[C@H](CCCNC(=N)N)NC(=O)[C@H](CCC(N)=O)NC(=O)[C@H](CCCNC(=N)N)NC(=O)[C@H](CCCNC(=N)N)NC(=O)[C@H](CCCCN)NC(=O)[C@H](CCCCN)NC(=O)[C@H](CCCNC(=N)N)NC(=O)CNC(=O)[C@H](Cc1ccc(O)cc1)NC(=O)CCCC[C@@H]1SC[C@@H]2NC(=O)N[C@@H]21)[C@@H](C)O)C(=O)O [Peptide 1832] (Biotin-YGRKKRRQRRRSRTDRKYWA-OH; C-terminus assumed) |  | INADL D3 | > 7.70 | 2.10 | 0.60 | ZO-1 D2 | 6.70 |
| CC[C@H](C)[C@H](NC(=O)[C@H](CCC(N)=O)NC(=O)[C@H](Cc1ccc(O)cc1)NC(=O)[C@H](CCCCN)NC(=O)[C@H](CCCNC(=N)N)NC(=O)[C@H](CC(=O)O)NC(=O)[C@@H](NC(=O)[C@H](CCCNC(=N)N)NC(=O)[C@H](CO)NC(=O)[C@H](CCCNC(=N)N)NC(=O)[C@H](CCCNC(=N)N)NC(=O)[C@H](CCCNC(=N)N)NC(=O)[C@H](CCC(N)=O)NC(=O)[C@H](CCCNC(=N)N)NC(=O)[C@H](CCCNC(=N)N)NC(=O)[C@H](CCCCN)NC(=O)[C@H](CCCCN)NC(=O)[C@H](CCCNC(=N)N)NC(=O)CNC(=O)[C@H](Cc1ccc(O)cc1)NC(=O)CCCC[C@@H]1SC[C@@H]2NC(=O)N[C@@H]21)[C@@H](C)O)C(=O)O [Peptide 1839] (Biotin-YGRKKRRQRRRSRTDRKYQI-OH; C-terminus assumed) |  | INADL D3 | > 7.70 | 2.50 | 1.60 |  | 6.89 |
| CC[C@H](C)[C@H](NC(=O)[C@H](CC(C)C)NC(=O)[C@H](CCCNC(=N)N)NC(=O)[C@H](CCCNC(=N)N)NC(=O)[C@H](CCC(=O)O)NC(=O)[C@H](CC(=O)O)NC(=O)[C@H](CCC(N)=O)NC(=O)[C@H](CCCNC(=N)N)NC(=O)[C@H](CCCNC(=N)N)NC(=O)[C@H](CCCNC(=N)N)NC(=O)[C@H](CCC(N)=O)NC(=O)[C@H](CCCNC(=N)N)NC(=O)[C@H](CCCNC(=N)N)NC(=O)[C@H](CCCCN)NC(=O)[C@H](CCCCN)NC(=O)[C@H](CCCNC(=N)N)NC(=O)CNC(=O)[C@H](Cc1ccc(O)cc1)NC(=O)CCCC[C@@H]1SC[C@@H]2NC(=O)N[C@@H]21)C(=O)N[C@H](C(=O)N[C@@H](CC(C)C)C(=O)O)C(C)C [Peptide 1842] (Biotin-YGRKKRRQRRRQDERRLIVL-OH) |  |  | 7.46 | 2.30 | 1.90 | ZO-1 D2 | > 6.00 |
| CC(C)C[C@H](NC(=O)[C@H](CO)NC(=O)[C@@H](NC(=O)[C@H](CC(C)C)NC(=O)[C@H](CCCNC(=N)N)NC(=O)[C@H](CC(=O)O)NC(=O)CNC(=O)[C@H](CCCNC(=N)N)NC(=O)[C@H](C)NC(=O)[C@H](CCCNC(=N)N)NC(=O)[C@H](CCCNC(=N)N)NC(=O)[C@H](CCCNC(=N)N)NC(=O)[C@H](CCC(N)=O)NC(=O)[C@H](CCCNC(=N)N)NC(=O)[C@H](CCCNC(=N)N)NC(=O)[C@H](CCCCN)NC(=O)[C@H](CCCCN)NC(=O)[C@H](CCCNC(=N)N)NC(=O)CNC(=O)[C@H](Cc1ccc(O)cc1)NC(=O)CCCC[C@@H]1SC[C@@H]2NC(=O)N[C@@H]21)C(C)C)C(=O)O [Peptide 1843] (Biotin-YGRKKRRQRRRARGDRLVSL-OH; C-terminus assumed) |  |  | 7.77 | 2.20 | 1.20 | ZO-1 D2 | > 5.70 |
| CC(C)[C@H](NC(=O)[C@H](Cc1ccc(O)cc1)NC(=O)[C@H](Cc1ccc(O)cc1)NC(=O)[C@H](CCC(=O)O)NC(=O)[C@H](CCCCN)NC(=O)[C@H](CC(=O)O)NC(=O)[C@H](CCCCN)NC(=O)[C@H](CC(N)=O)NC(=O)[C@H](CCCCN)NC(=O)[C@H](CCCNC(=N)N)NC(=O)[C@H](CCCNC(=N)N)NC(=O)[C@H](CCCNC(=N)N)NC(=O)[C@H](CCC(N)=O)NC(=O)[C@H](CCCNC(=N)N)NC(=O)[C@H](CCCNC(=N)N)NC(=O)[C@H](CCCCN)NC(=O)[C@H](CCCCN)NC(=O)[C@H](CCCNC(=N)N)NC(=O)CNC(=O)[C@H](Cc1ccc(O)cc1)NC(=O)CCCC[C@@H]1SC[C@@H]2NC(=O)N[C@@H]21)C(=O)O [Peptide 1852] (Biotin-YGRKKRRQRRRKNKDKEYYV-OH) |  |  | > 7.70 |  |  |  | > 7.70 |
| NC(=O)c1ccc[n+]([C@@H]2O[C@H](COP(=O)([O-])OP(=O)(O)OC[C@H]3O[C@@H](n4cnc5c(N)ncnc54)[C@H](O)[C@@H]3O)[C@@H](O)[C@H]2O)c1 [nicotinamide adenine dinucleotide] | 3.00 |  |  |  |  |  |  |
